Results taken from patent US5023087A, “Efficient method for preparation of prolonged release liposome-based drug delivery system” (Liposome Technology, Inc., priority 1989, dated 1991).

How the values were obtained:
[1] = Plasma levels of immunoreactive sCT (radio-immunoassay) after IM injection; assay type: in vivo, rats; settings: 1 ug
Protocol: Rats weighing 95 to 105 gm were injected intramuscularly in the forelimbs with sCT or sCT-MLVs. At each time point, four rats were bled by cardiac puncture and the blood collected in pre-chilled EDTA containing tubes. The plasma was collected after centrifugation at 4° C. and quickly frozen. The frozen samples were sent to Hazleton Laboratories for sCT radio-immunoassay (RIA). […] Thus, sCT-MLVs injected intramuscularly can achieve prolonged delivery to the systemic circulation.

[2] = Clearance of 125I-sCT from the intramuscular or subcutaneous site of injection; assay type: in vivo, Sprague-Dawley rats; settings: free drug, FIG. 2/3
Protocol: The rate of clearance of sCT from a given liposome furmulation was determined by monitoring the clearance of ^125 I-sCT from the intramuscular site of injection. Salmon calcitonin was spiked with ^1251 -sCT and encapsulated in MLVs as described in Example I in such a way that after the removal of non-liposome associated drug, the injection sample contained about 10,000 cpm of ^125 I per injection.
Male Sprague-Dawley rats weighing 95 to 100 g were lightly anesthetized with ether, and 20 ul or 100 ul of the ^125 I-sCT liposome samples were injected either in the lower part of the forelimbs or the hindlimbs respectively. Sixteen to twenty rats were used in each experiment. […] At each time point, two rats were anesthetized for blood sampling (two ml blood were drawn and counted for ^125 I radioactivity). […] The limbs were inserted into tubes and then counted for remaining radioactivity in a gamma counter. The eight to ten time points shown in FIG. 2 were selected so that the half-life of clearance from the IM site could be determined by a semi-log plot of the radioactivity remaining versus time after injection as shown in FIG. 3. […]
The urine and feces from the two rats kept in metabolic cages throughout the experiment were collected and counted for radioactivity. […]

[3] = Apparent first order absorption rate constant of gentamicin from urinary excretion after IM injection; settings: lipid dose 0 umol/inj.
Protocol: The gentamicin concentration in the liposomes formulation was determined by the EMIT assay (Syva, Palo Alto, CA) after lysis in triton X-100.
Therefore, the apparent absorption rate constant, Ka, was estimated with the urinary excretion.
One group of four rats was immediately placed in metabolic cages (one rat per cage) and urine was collected at 24 hour intervals for the duration of the experiment. Cages were rinsed with distilled water after each collection and the volume of the pooled urine and rinses were recorded. An aliquot of each sample was frozen until assay.

| Molecule | plasma immunoreactive sCT in circulation [1] | clearance half-life from the site of IM injection [2] | Rate Const. Ka (apparent first order absorption rate constant) [3] |
| --- | --- | --- | --- |
| CC(C)C[C@H](NC(=O)[C@H](CCCCN)NC(=O)CNC(=O)[C@H](CC(C)C)NC(=O)[C@@H](NC(=O)[C@@H]1CSSC[C@H](N)C(=O)N[C@@H](CO)C(=O)N[C@@H](CC(N)=O)C(=O)N[C@@H](CC(C)C)C(=O)N[C@@H](CO)C(=O)N[C@@H]([C@@H](C)O)C(=O)N1)C(C)C)C(=O)N[C@@H](CO)C(=O)N[C@@H](CCC(N)=O)C(=O)N[C@@H](CCC(=O)O)C(=O)N[C@@H](CC(C)C)C(=O)N[C@@H](Cc1c[nH]cn1)C(=O)N[C@@H](CCCCN)C(=O)N[C@@H](CC(C)C)C(=O)N[C@@H](CCC(N)=O)C(=O)N[C@H](C(=O)N[C@@H](Cc1ccc(O)cc1)C(=O)N1CCC[C@H]1C(=O)N[C@@H](CCCNC(=N)N)C(=O)N[C@H](C(=O)N[C@@H](CC(N)=O)C(=O)N[C@H](C(=O)NCC(=O)N[C@@H](CO)C(=O)NCC(=O)N[C@H](C(=O)N1CCC[C@H]1C(N)=O)[C@@H](C)O)[C@@H](C)O)[C@@H](C)O)[C@@H](C)O [F-sCT, Salmon calcitonin] | rapidly disappeared from circulation | a few minutes | – |
| gentamicin [Gentamicin solution] | – | – | 5.3 h⁻¹ |
